Results: US9572785B2, “DP2 antagonist and uses thereof” (Brickell Biotech, Inc., priority 2009, dated 2017)
Like-named read-outs stand apart in the source and are kept apart here.

Experiments:
[1] = Compound 1 2 mg/kg intravenous, semi-quantitative
Protocol: Rats with surgically placed bile duct and jugular vein cannula were purchased from Charles River Laboratories and allowed to acclimate for 2 days. […] Bile was collected at time-points 0-2, 2-5, 5-8, and 8-24 hrs post-dose in 8 mL scintillation vials and stored at −40° C. until LC-MS/MS analysis.
Analyses were performed using a Waters YMC ODS-AQ column (2.1×150 mm; 3 μm) linked to a Shimadzu LC-10AD VP with SCL-10A VP system controller. Tandem mass spectrometric (MS/MS) detection was carried out on a Sciex ABI3200 QTrap in the positive ion mode (ESI) by multiple reaction monitoring, precursor ion scan, and enhanced product ion scan. The mobile phases contained 10 mM ammonium acetate in water with 0.05% formic acid (solvent A) and 10 mM ammonium acetate in 50% acetonitrile/50% methanol with 0.05% formic acid (solvent B). […] Analytes were separated using a linear gradient as follows:
Analytes were separated using a linear gradient as follows:

[2] = molecular target: Cytochrome P450 Enzyme 2C19 (Homo sapiens, UniProt P33261); assay: Extracellular cytochrome P450 inhibition, CYP2C19
Protocol: (§1) In general, microsomes at protein concentrations as defined in Table 12 were mixed with buffer (100 mM KH2PO4, pH 7.4), MgCl2 (6 mM)) and substrate, and were kept on ice. Aliquots of this mixture (89 μL) were delivered to each well of a 96-well polypropylene plate which contained an aliquot of inhibitor (1 μL) in acetonitrile:water (1:1). Final solvent concentrations were less than 1% (v/v). Incubations were initiated with the addition of 10 μL β-NADPH (10 mM stock) to a final volume of 100 μL. […] Samples were centrifuged at 4° C., and supernatant was transferred for LC-MS/MS analysis.

[3] = Properties of the amorphous phase; assay type: physicochemical; settings: from 0% to 90% relative humidity
[4] = Canine studies of formulations; assay type: in vivo; settings: oral formulations
[5] = molecular target: Cytochrome P450 Enzyme 2C9 (Homo sapiens, UniProt P11712); assay: Extracellular cytochrome P450 inhibition, CYP2C9; assay type: in vitro ADME; settings: diclofenac 4′-hydroxylation, microsomes
Sequence of Cytochrome P450 Enzyme 2C9 (P11712 whole entry): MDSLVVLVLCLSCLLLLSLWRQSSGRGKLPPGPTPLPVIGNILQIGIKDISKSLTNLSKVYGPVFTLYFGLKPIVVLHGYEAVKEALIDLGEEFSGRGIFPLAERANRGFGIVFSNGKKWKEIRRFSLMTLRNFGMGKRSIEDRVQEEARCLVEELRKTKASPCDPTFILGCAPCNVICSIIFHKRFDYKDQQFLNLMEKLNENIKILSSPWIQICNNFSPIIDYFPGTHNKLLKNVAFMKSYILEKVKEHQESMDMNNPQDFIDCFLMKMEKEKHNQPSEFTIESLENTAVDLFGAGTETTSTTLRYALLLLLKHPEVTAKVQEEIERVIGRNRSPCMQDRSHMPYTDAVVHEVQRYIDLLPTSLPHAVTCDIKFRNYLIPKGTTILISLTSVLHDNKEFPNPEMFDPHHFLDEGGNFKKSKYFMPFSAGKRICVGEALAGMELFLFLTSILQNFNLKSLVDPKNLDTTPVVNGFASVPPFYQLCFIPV
Protocol: as §1

[6] = molecular target: Cytochrome P450 Enzyme 2D6 (Homo sapiens, UniProt P10635); assay: Extracellular cytochrome P450 inhibition, CYP2D6; assay type: in vitro ADME; settings: dextromethorphan O-demethylation, microsomes
Sequence of Cytochrome P450 Enzyme 2D6 (P10635 whole entry): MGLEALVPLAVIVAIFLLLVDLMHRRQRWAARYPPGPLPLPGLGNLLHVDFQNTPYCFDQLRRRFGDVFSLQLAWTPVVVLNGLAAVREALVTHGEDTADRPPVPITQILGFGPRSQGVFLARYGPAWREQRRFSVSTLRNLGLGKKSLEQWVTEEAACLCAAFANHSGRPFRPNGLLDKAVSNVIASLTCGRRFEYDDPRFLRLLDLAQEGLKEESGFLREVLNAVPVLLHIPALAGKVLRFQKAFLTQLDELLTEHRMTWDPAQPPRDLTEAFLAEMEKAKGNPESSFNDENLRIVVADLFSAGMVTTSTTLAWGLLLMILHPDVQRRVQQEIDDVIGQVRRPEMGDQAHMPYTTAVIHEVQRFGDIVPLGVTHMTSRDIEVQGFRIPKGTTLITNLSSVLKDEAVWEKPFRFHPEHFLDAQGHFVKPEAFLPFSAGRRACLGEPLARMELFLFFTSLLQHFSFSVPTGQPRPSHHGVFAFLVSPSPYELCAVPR
Protocol: as §1

[7] = molecular target: T1, Cytochrome P450 Enzyme 1A2 (Homo sapiens, UniProt P05177)
T1 sequence (P05177 1-516): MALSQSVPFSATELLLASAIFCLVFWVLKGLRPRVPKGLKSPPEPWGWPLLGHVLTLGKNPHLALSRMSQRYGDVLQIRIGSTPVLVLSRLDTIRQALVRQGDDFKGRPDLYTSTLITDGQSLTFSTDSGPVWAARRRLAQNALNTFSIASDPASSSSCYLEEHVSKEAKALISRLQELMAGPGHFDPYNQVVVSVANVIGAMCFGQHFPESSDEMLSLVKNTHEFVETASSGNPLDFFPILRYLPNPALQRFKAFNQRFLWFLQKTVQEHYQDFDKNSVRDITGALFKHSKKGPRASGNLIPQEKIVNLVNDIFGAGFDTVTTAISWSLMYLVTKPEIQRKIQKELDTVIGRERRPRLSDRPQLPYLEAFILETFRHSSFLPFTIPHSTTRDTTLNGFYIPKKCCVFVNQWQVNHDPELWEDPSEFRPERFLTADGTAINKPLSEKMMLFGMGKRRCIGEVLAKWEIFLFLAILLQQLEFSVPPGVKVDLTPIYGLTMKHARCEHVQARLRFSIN
Protocol: as §1

[8] = molecular target: Cytochrome P450 Enzyme 3A4 (Homo sapiens, UniProt P08684); settings: microsomes
Sequence of Cytochrome P450 Enzyme 3A4 (P08684 whole entry): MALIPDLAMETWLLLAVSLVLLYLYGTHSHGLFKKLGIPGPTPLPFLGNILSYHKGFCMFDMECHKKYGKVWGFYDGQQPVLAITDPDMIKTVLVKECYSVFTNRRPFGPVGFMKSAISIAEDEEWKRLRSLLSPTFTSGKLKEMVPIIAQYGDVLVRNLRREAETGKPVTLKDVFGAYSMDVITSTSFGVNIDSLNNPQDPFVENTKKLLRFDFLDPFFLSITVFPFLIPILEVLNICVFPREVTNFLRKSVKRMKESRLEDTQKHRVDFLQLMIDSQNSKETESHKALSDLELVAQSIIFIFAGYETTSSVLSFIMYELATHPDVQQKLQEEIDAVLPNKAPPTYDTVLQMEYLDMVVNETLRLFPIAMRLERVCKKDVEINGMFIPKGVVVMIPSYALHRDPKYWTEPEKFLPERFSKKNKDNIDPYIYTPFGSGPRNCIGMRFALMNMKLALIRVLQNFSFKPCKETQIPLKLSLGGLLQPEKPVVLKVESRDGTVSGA
Protocol: as §1

[9] = test system: mouse model of ovalbumin (OVA)-induced allergic rhinitis; assay: Mouse allergic rhinitis model; assay type: in vivo; settings: daily 10 mg/kg PO, OVA-primed and challenged mice
[10] = test system: DK-PGD2-induced peripheral blood leukocyte influx; assay: Guinea pig IV-DKPGD2-induced peripheral blood leukocyte influx; assay type: in vivo; settings: for ED50: Cavia porcellus, Leukocyte, oral
Protocol: Methods were adapted from those detailed Shichijo et al., 2003, Journal of Pharmacology and Experimental Therapeutics, 307:518-525. Male Hartley guinea pigs were immunized with ovalbumin (OVA) on day 0 by intraperitoneal (IP) injection of 1 ml of a 100 μg/ml solution in Imject Alum. They were then used in the DK-PGD2 procedure between days 14 and 21. Subjects were randomly assigned to receive either vehicle (0.5% methyl cellulose, 4 ml/kg, oral (PO)) or one of three to four doses of test compound. Two hours or eighteen hours after dosing, animals were anesthetized with ketamine and challenged with DK-PGD2 (1 mg/kg, IV). Thirty minutes after IV administration, blood was collected via the marginal ear vein into EDTA tubes for cell analysis. 10 μl blood was lysed in 190 μl water followed by a further 20-fold dilution in PBS. A 10 μl fraction was mixed with equal parts trypan blue and loaded on a hemocytometer. Cells were visualized at a magnification of 40× using a LabPro light microscope and totals counted and recorded. Cells are expressed as total cells×10^8 per ml of blood. Inhibition of this effect by select compounds is determined statistically using Graphpad prism.

[11] = test system: guinea pig OVA model of allergen-induced asthma; assay: Guinea pig allergic asthma model; assay type: in vivo; settings: 3 mg/kg and 30 mg/kg b.i.d. PO, 24 hours after aerosolized OVA challenge
Protocol: Aerosolized OVA challenge to OVA-primed guinea pigs causes a significant influx of cells into the bronchoalveolar lavage fluid taken 24 hours after challenge. This increase is primarily from influx of eosinophils and neutrophils with a small proportion from macrophages.

in vivo = settings: Hartley, guinea pig, plasma, po
DP2 receptor = molecular target: T2, DP2 receptor (Homo sapiens, UniProt Q9Y5Y4); assay: Phase I study, ex vivo PGD2-induced blood eosinophil shape change (ESC); assay type: in vivo; design: endogenous in cells; host or cells: eosinophils in human whole blood; settings: humans
T2 sequence (Q9Y5Y4 1-395): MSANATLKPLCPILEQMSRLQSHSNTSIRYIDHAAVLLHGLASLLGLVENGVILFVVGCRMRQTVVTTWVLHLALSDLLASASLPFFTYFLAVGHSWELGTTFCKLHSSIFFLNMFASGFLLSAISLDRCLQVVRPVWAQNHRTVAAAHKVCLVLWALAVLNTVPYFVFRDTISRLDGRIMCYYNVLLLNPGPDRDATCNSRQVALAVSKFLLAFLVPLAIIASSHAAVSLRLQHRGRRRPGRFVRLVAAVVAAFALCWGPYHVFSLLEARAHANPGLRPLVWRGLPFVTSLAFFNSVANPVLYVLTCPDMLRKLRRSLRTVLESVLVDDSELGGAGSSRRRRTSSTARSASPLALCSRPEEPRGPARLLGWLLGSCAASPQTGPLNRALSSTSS
Protocol: Blood is drawn from consenting human volunteers in EDTA vacutainer tubes and used within 1 hr of draw. […] The blood is vortexed and incubated at 37° C. for 5 minutes. 5 μl of 1 μM PGD2 in PBS is added for a final concentration of 50 nM and the tubes briefly vortexed. The reactions are incubated for exactly 5 minutes at 37° C. and then terminated by placing the tubes on ice and immediately adding 250 μl of ice-cold 1:4 diluted Cytofix (BD Biosciences). The reactions are transferred to 12×75 mM polystyrene round bottom tubes and the red blood cells lysed by the addition of 3 ml ammonium chloride lysing solution (150 mM NH4Cl, 10 mM KHCO3, 0.1 mM EDTA disodium salt) and incubation at room temperature for 15 minutes. […] The cells are resuspended in 0.2 ml of ice-cold 1:4 diluted Cytofix (BD Biosciences) and analyzed on a FACSCalibur (BD Biosciences) within 2 hours. […] The specific change in shape induced by PGD2 was calculated as the difference between the percentage of high forward scatter eosinophils in the presence and absence of PGD2.
At varying times after dosing blood is drawn for both pharmacokinetic analyses of drug concentration in blood, and also for PGD2 challenge and eosinophil shape change determination. The extent of receptor blockage is determined from the relationship between drug blood concentration and percentage inhibition of eosinophil shape change.

Sequence of Cytochrome P450 Enzyme 2C19 (P33261 whole entry): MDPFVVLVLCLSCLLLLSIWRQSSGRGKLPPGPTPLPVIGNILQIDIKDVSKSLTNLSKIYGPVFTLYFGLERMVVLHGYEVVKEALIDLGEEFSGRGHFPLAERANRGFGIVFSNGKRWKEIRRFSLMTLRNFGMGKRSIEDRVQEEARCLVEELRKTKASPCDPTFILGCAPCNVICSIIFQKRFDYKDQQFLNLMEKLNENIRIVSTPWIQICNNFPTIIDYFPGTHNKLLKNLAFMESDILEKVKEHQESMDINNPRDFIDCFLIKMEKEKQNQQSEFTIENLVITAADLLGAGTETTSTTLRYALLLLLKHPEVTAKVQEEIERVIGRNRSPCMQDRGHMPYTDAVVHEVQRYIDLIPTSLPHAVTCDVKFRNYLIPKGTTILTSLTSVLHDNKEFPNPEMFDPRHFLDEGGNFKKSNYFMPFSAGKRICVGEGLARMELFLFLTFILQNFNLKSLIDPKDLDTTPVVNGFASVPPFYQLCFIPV

## CCN(Cc1cc(C(F)(F)F)ccc1-c1cc(CC(=O)O[C@@H]2O[C@H](C(=O)O)[C@@H](O)[C@H](O)[C@H]2O)ccc1OC)C(=O)NCc1ccccc1 [Compound M2, acyl gluconuride of [2′-(3-benzyl-1-ethyl-ureidomethyl)-6-methoxy-4′-trifluoromethyl-biphenyl-3-yl]-acetic acid]
[1]
  metabolite in rat bile, peak area relative to parent: 273 % of parent

## CCC1(c2ccccc2)C(=O)NC(=O)N(Cc2ccccc2)C1=O (single isomer, unassigned; (-)) [(-)-N-3-benzyl-phenobarbital, reference compound]
[2]; mephenytoin 4′-hydroxylation, microsomes
  IC50: 1.2 µM

## CCN(Cc1cc(C(F)(F)F)ccc1-c1cc(CC(=O)[O-])ccc1OC)C(=O)NCc1ccccc1.[Na+] [Compound 2, [2′-(3-benzyl-1-ethyl-ureidomethyl)-6-methoxy-4′-trifluoromethyl-biphenyl-3-yl]-acetic acid, sodium salt]
[3]
  hygroscopicity, weight change: 36%
[4]
  absorption: rapidly absorbed in the stomach and upper gastrointestinal tract
[5]
  IC50: > 50 µM
[2]
  IC50: > 50 µM
[6]
  IC50: > 50 µM
[7]
  IC50: > 50 µM
[8]; IC50, midazolam 1-hydroxylation
  IC50: 40 µM
[8]; IC50, testosterone 6β-hydroxylation
  IC50: > 50 µM
[9]
  nasal rubs: trend toward a decrease
  sneezing behavior: significantly reduced sneezing behavior
[10]; 2 hr study
  associated EC50 (plasma concentration): 0.055 µM
[10]; 2 hr study, oral 0.1 mg/kg
  inhibition of DK-PGD2-induced peripheral blood leukocyte increase: 21%
[10]; 2 hr study, oral 1 mg/kg
  inhibition of DK-PGD2-induced peripheral blood leukocyte increase: 59%
[10]; 2 hr study, oral 10 mg/kg
  inhibition of DK-PGD2-induced peripheral blood leukocyte increase: 62%
[10]; 2 hr study, oral 30 mg/kg
  inhibition of DK-PGD2-induced peripheral blood leukocyte increase: 80%
[10]; 18 hr study
  observed EC50: < 0.04 µM
[10]; 18 hr study, oral 1 mg/kg
  inhibition of peripheral blood leukocyte numbers: 0%
[10]; 18 hr study, oral 10 mg/kg
  inhibition of peripheral blood leukocyte numbers: 29%
[10]; 18 hr study, oral 30 mg/kg
  inhibition of peripheral blood leukocyte numbers: 50%
[10]; 18 hr study, oral 100 mg/kg
  inhibition of peripheral blood leukocyte numbers: 77%
[10]; 2 hr study, read-out: ED50
  ED50: 0.85 mg/kg
[10]; 18 hr study, read-out: calculated ED50
  ED50: 30 mg/kg
[11]
  cellular influx into bronchoalveolar lavage fluid: dose-dependently reduced total cellular influx including eosinophils and neutrophils
In vivo; 0.1 mg/kg
  concentration at 2.5 h: 22 nM
In vivo; 1 mg/kg
  concentration at 2.5 h: 61 nM
In vivo; 10 mg/kg
  concentration at 2.5 h: 222 nM
In vivo; 30 mg/kg
  concentration at 2.5 h: 727 nM
DP2 receptor; at 24 hours, 100 mg dose
  inhibition at 100 mg: 75 to 90%
DP2 receptor; at Cmax, doses equal to or greater than 30 mg
  inhibition of the PGD2-induced eosinophil shape change (ESC): 80-100%
